In patent publication US20120058989A1, “ANTIBACTERIAL FLUOROQUINOLONE ANALOGS” (Achaogen, Inc., priority 2008, published 2012):
In brackets after ≈: the same amount, converted by molar mass. Like-named read-outs stand apart in the source and are kept apart here.

Assays:
Experiment in all cases: MIC, CLSI broth microdilution
Type in all cases: cell-based
[1] = tested on: S. pneumoniae ASPN1018 (Fluoroquinolone-resistant); settings: Streptococcus pneumoniae, Table 3
Procedure, shortened: (§1)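 CLSI M7-A7 broth microdilution; 2-fold serial dilutions in Mueller Hinton Broth, 1:1 with inoculum; final 5×10^5 CFU/mL; 35° C., 20 h, ambient air. QC strains E. coli ATCC 25922, P. aeruginosa ATCC 27853, S. aureus ATCC 29213.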

[2] = tested on: P. aeruginosa APAE001 (Fluoroquinolone-susceptible, ATCC27853); settings: for MIC: Pseudomonas aeruginosa; for MIC APAE 001: Table 2
Procedure, shortened: as §1

[3] = tested on: S. pneumoniae ASPN002 (Fluoroquinolone-susceptible, ATCC10813); settings: Streptococcus pneumoniae, Table 3
Procedure, shortened: as §1

[4] = tested on: A. baumannii AABA1009 (Fluoroquinolone-resistant); settings: for MIC: Acinetobacter baumannii, Table 2, read-out: MIC AABA 1009; for MIC AABA 1009: Table 2
Procedure, shortened: as §1

[5] = tested on: S. pneumoniae ASPN1027 (Fluoroquinolone-resistant); settings: for MIC: Streptococcus pneumoniae; for MIC ASPN 1027: Table 2
Procedure, shortened: as §1

[6] = tested on: S. aureus ASAU002 (Fluoroquinolone-susceptible, ATCC33591 (MRSA)); settings: Staphylococcus aureus, Table 3
Procedure, shortened: as §1

[7] = tested on: S. aureus ASAU1033 (Fluoroquinolone-resistant); settings: Staphylococcus aureus, Table 3
Procedure, shortened: as §1

[8] = tested on: E. coli AECO066 (Fluoroquinolone-resistant); settings: for MIC: Escherichia coli; for MIC AECO 066: Table 2
Procedure, shortened: as §1

[9] = tested on: E. coli AECO002 (Fluoroquinolone susceptible); settings: Escherichia coli, Table 3
Procedure, shortened: as §1

[10] = tested on: A. baumannii AABA1065 (Fluoroquinolone-susceptible); settings: for MIC: Acinetobacter baumannii; for MIC AABA 1065: Table 2
Procedure, shortened: as §1

[11] = tested on: S. pneumoniae ASPN001 (Fluoroquinolone-susceptible, ATCC49619); settings: for MIC: Streptococcus pneumoniae; for MIC ASPN 001: Table 2
Procedure, shortened: as §1

[12] = tested on: S. aureus ASAU1031 (Fluoroquinolone-resistant); settings: for MIC: Staphylococcus aureus; for MIC ASAU 1031: Table 2
Procedure, shortened: as §1

[13] = tested on: E. coli AECO001 (Fluoroquinolone susceptible, ATCC25922); settings: for MIC: Escherichia coli
Procedure, shortened: as §1

[14] = tested on: A. baumannii AABA1020 (Fluoroquinolone-resistant); settings: Acinetobacter baumannii, Table 3
Procedure, shortened: as §1

[15] = tested on: P. aeruginosa APAE054 (Fluoroquinolone-resistant); settings: for MIC: Pseudomonas aeruginosa; for MIC APAE 054: Table 2
Procedure, shortened: as §1

[16] = tested on: S. aureus ASAU001 (Fluoroquinolone-susceptible, ATCC29213); settings: for MIC: Staphylococcus aureus; for MIC ASAU 001: Table 2
Procedure, shortened: as §1

[17] = tested on: E. coli AECO086 (Fluoroquinolone-resistant); settings: Escherichia coli, Table 3
Procedure, shortened: as §1

[18] = tested on: P. aeruginosa APAE002 (Fluoroquinolone susceptible); settings: Pseudomonas aeruginosa, Table 3
Procedure, shortened: as §1

[19] = Table 2, read-out: MIC APAE 001
[20] = Table 2, read-out: MIC ASPN 1027
[21] = Table 2, read-out: MIC AECO 066
[22] = Table 2, read-out: MIC AABA 1065
[23] = Table 2, read-out: MIC ASPN 001
[24] = Table 2, read-out: MIC ASAU 1031
[25] = Table 2, 35° C., 20 hours, read-out: MIC AECO 001
[26] = Table 2, read-out: MIC APAE 054
[27] = Table 2, read-out: MIC ASAU 001

| MIC [2, 19] [µg/mL] | MIC [4] [µg/mL] | MIC [5, 20] [µg/mL] | MIC [8, 21] [µg/mL] | MIC [10, 22] [µg/mL] | MIC [11, 23] [µg/mL] | MIC [12, 24] [µg/mL] | MIC [13, 25] [µg/mL] | MIC [15, 26] [µg/mL] | MIC [16, 27] [µg/mL] | MIC APAE 001 [2] | MIC AABA 1009 [4] | MIC ASPN 1027 [5] | MIC AECO 066 [8] | MIC ASAU 1031 [12] | MIC APAE 054 [15] | Compound | MIC AABA 1065 [10] | MIC ASPN 001 [11] | MIC AECO 001 ([13]; Table 2, 35° C., 20 hours) | MIC ASAU 001 [16] | also measured |
| --- | --- | --- | --- | --- | --- | --- | --- | --- | --- | --- | --- | --- | --- | --- | --- | --- | --- | --- | --- | --- | --- |
| 1 to 8 (≈ 2.69 to 21.5 µM) | > 8 | 1 to 8 (≈ 2.69 to 21.5 µM) | 1 to 8 (≈ 2.69 to 21.5 µM) | ≤ 1 | ≤ 1 | 1 to 8 (≈ 2.69 to 21.5 µM) | ≤ 1 | > 8 | ≤ 1 |  |  |  |  |  |  | N[C@H]1C[C@H]2CCCc3c(c(F)cc4c(=O)c(C(=O)O)cn(C5CC5)c34)N2C1 [3/15] |  |  |  |  | MIC [1]: 1 to 2 µg/mL (≈ 2.69 to 5.38 µM); MIC ([2]; Table 3): < 1 µg/mL; MIC [3]: < 1 µg/mL; MIC ([5]; Table 3): 2 to 8 µg/mL (≈ 5.38 to 21.5 µM); MIC [6]: < 1 µg/mL; MIC [7]: > 8 µg/mL; MIC ([8]; Table 3): 2 to 8 µg/mL (≈ 5.38 to 21.5 µM); MIC [9]: < 1 µg/mL; MIC ([10]; Table 3): < 1 µg/mL; MIC ([11]; Table 3): < 1 µg/mL; MIC ([12]; Table 3): 2 to 8 µg/mL (≈ 5.38 to 21.5 µM); MIC ([13]; Table 3): < 1 µg/mL; MIC [14]: > 8 µg/mL; MIC ([15]; Table 3): > 8 µg/mL; MIC ([16]; Table 3): < 1 µg/mL; MIC [17]: 2 to 8 µg/mL (≈ 5.38 to 21.5 µM); MIC [18]: < 1 µg/mL |
|  |  |  |  |  |  |  |  |  |  | C (MIC's of greater than 8.0 μg/mL = C) | C (MIC's of greater than 8.0 μg/mL = C) | C (MIC's of greater than 8.0 μg/mL = C) | C (MIC's of greater than 8.0 μg/mL = C) | C (MIC's of greater than 8.0 μg/mL = C) | C (MIC's of greater than 8.0 μg/mL = C) | O=C(O)c1cn(C2CC2)c2c3c(c(F)cc2c1=O)N1CCCC1CC(O)C3O (stereo not drawn) [27/9, 4-Cyclopropyl-12-fluoro-5,6-dihydroxy-1-oxo-4,5,6,7,7a,8,9,10-octahydro-1H-pyrrolo[1′,2′:1,7]azepino[2,3-h]quinoline-2-carboxylic acid] | B (MIC's of greater than 1.0 μg/mL to 8.0 μg/mL = B) | C (MIC's of greater than 8.0 μg/mL = C) | B (MIC's of greater than 1.0 μg/mL to 8.0 μg/mL = B) | B (MIC's of greater than 1.0 μg/mL to 8.0 μg/mL = B) |  |
|  |  |  |  |  |  |  |  |  |  | C (MIC's of greater than 8.0 μg/mL = C) | C (MIC's of greater than 8.0 μg/mL = C) | C (MIC's of greater than 8.0 μg/mL = C) | C (MIC's of greater than 8.0 μg/mL = C) | C (MIC's of greater than 8.0 μg/mL = C) | C (MIC's of greater than 8.0 μg/mL = C) | O=C1Cc2c(c(F)cc3c(=O)c(C(=O)O)cn(C4CC4)c23)N2CCCC2C1 (stereo not drawn) [27/10, 4-Cyclopropyl-12-fluoro-1,6-dioxo-4,5,6,7,7a,8,9,10-octahydro-1H-pyrrolo[1′,2′:1,7]azepino[2,3-h]quinoline-2-carboxylic acid] | B (MIC's of greater than 1.0 μg/mL to 8.0 μg/mL = B) | C (MIC's of greater than 8.0 μg/mL = C) | B (MIC's of greater than 1.0 μg/mL to 8.0 μg/mL = B) | B (MIC's of greater than 1.0 μg/mL to 8.0 μg/mL = B) |  |
|  |  |  |  |  |  |  |  |  |  | C (MIC's of greater than 8.0 μg/mL = C) | C (MIC's of greater than 8.0 μg/mL = C) | C (MIC's of greater than 8.0 μg/mL = C) | C (MIC's of greater than 8.0 μg/mL = C) | C (MIC's of greater than 8.0 μg/mL = C) | C (MIC's of greater than 8.0 μg/mL = C) | CON=C1Cc2c(c(F)cc3c(=O)c(C(=O)O)cn(C4CC4)c23)N2CCCC2C1 (stereo not drawn) [27/11, 4-Cyclopropyl-12-fluoro-6-(methoxyimino)-1-oxo-4,5,6,7,7a,8,9,10-octahydro-1H-pyrrolo[1′,2′:1,7]azepino[2,3-h]quinoline-2-carboxylic acid] | B (MIC's of greater than 1.0 μg/mL to 8.0 μg/mL = B) | B (MIC's of greater than 1.0 μg/mL to 8.0 μg/mL = B) | B (MIC's of greater than 1.0 μg/mL to 8.0 μg/mL = B) | A (MIC's of 1.0 μg/mL or less = A) |  |
| ≤ 1 | > 8 | 1 to 8 (≈ 2.71 to 21.7 µM) | > 8 | ≤ 1 | ≤ 1 | 1 to 8 (≈ 2.71 to 21.7 µM) | ≤ 1 | > 8 | ≤ 1 |  |  |  |  |  |  | N[C@H]1CC2CC=Cc3c(c(F)cc4c(=O)c(C(=O)O)cn(C5CC5)c34)N2C1 (stereo partly drawn) [32 /5] |  |  |  |  |  |
| > 8 | > 8 | > 8 | > 8 | 1 to 8 (≈ 2.79 to 22.3 µM) | 1 to 8 (≈ 2.79 to 22.3 µM) | > 8 | ≤ 1 | > 8 | ≤ 1 |  |  |  |  |  |  | O=C(O)c1cn(C2CC2)c2c3c(c(F)cc2c1=O)N1CCCC1CCO3 (stereo not drawn) [32/1] |  |  |  |  |  |
| ≤ 1 | > 8 | > 8 | > 8 | ≤ 1 | ≤ 1 | > 8 | ≤ 1 | > 8 | ≤ 1 |  |  |  |  |  |  | N[C@H]1C[C@H]2CCOc3c(c(F)cc4c(=O)c(C(=O)O)cn(C5CC5)c34)N2C1 [32/2] |  |  |  |  |  |
| 1 to 8 (≈ 2.69 to 21.5 µM) | > 8 | 1 to 8 (≈ 2.69 to 21.5 µM) | > 8 | > 8 | ≤ 1 | > 8 | ≤ 1 | > 8 | ≤ 1 |  |  |  |  |  |  | N[C@H]1CC2CCCc3c(c(F)cc4c(=O)c(C(=O)O)cn(C5CC5)c34)N2C1 (stereo partly drawn) [32/4] |  |  |  |  |  |
| ≤ 1 | > 8 | 1 to 8 (≈ 2.57 to 20.5 µM) | > 8 | ≤ 1 | ≤ 1 | > 8 | ≤ 1 | > 8 | ≤ 1 |  |  |  |  |  |  | CO/N=C1\CN(c2nc3c(cc2F)c(=O)c(C(=O)O)cn3C2CC2)CC1CN (stereo not drawn) [Gemifloxacin, reference compound] |  |  |  |  |  |

| Compound | MIC [2, 19] [µg/mL] | MIC [4] [µg/mL] | MIC [5, 20] [µg/mL] | MIC [8, 21] [µg/mL] | MIC [10, 22] [µg/mL] | MIC [11, 23] [µg/mL] | MIC [12, 24] [µg/mL] | MIC [13, 25] [µg/mL] | MIC [15, 26] [µg/mL] | MIC [16, 27] [µg/mL] | MIC APAE 001 [2] | MIC AABA 1009 [4] | MIC ASPN 1027 [5] | MIC AECO 066 [8] | MIC ASAU 1031 [12] | MIC APAE 054 [15] | MIC AABA 1065 [10] | MIC ASPN 001 [11] | MIC AECO 001 ([13]; Table 2, 35° C., 20 hours) | MIC ASAU 001 [16] | also measured |
| --- | --- | --- | --- | --- | --- | --- | --- | --- | --- | --- | --- | --- | --- | --- | --- | --- | --- | --- | --- | --- | --- |
| O=C(O)c1cn(C2CC2)c2c3c(c(F)cc2c1=O)N1CCCC1CC(=NO)C3 (stereo not drawn) [27/12, 4-Cyclopropyl-12-fluoro-6-(hydroxyimino)-1-oxo-4,5,6,7,7a,8,9,10-octahydro-1H-pyrrolo[1′,2′:1,7]azepino[2,3-h]quinoline-2-carboxylic acid] |  |  |  |  |  |  |  |  |  |  | C (MIC's of greater than 8.0 μg/mL = C) | C (MIC's of greater than 8.0 μg/mL = C) | C (MIC's of greater than 8.0 μg/mL = C) | C (MIC's of greater than 8.0 μg/mL = C) | B (MIC's of greater than 1.0 μg/mL to 8.0 μg/mL = B) | C (MIC's of greater than 8.0 μg/mL = C) | B (MIC's of greater than 1.0 μg/mL to 8.0 μg/mL = B) | B (MIC's of greater than 1.0 μg/mL to 8.0 μg/mL = B) | B (MIC's of greater than 1.0 μg/mL to 8.0 μg/mL = B) | A (MIC's of 1.0 μg/mL or less = A) |  |
